Measured values as given in patent US10202349B2, “Asymmetric bis-acridines with antitumour activity and their uses” (POLITECHNIKA GDAŃSKA, priority 2015, dated 2019).

What was measured:
DU 145 = experiment: Anti-neoplasmic activity against xenograft in hairless mice; format: in vivo; details: series 2, i.p., single 4 mg/kg, total 24 mg/kg, day 35
Method in brief: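 Human tumour cells (5×10^6 per mouse) implanted subcutaneously in 5-week female nude mice; randomised at ~100–200 mm^3 tumour volume. Dosing i.v. or i.p., twice weekly (thrice for fast growers) over 4 weeks, three dose levels. Growth inhibition computed from volume change versus controls.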

Mia Pa Ca 2 = experiment: as above; format: in vivo; details: series 12, i.p., single 4 mg/kg, total 32 mg/kg, day 26
Method in brief: (§1)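 s.c. xenograft, 5×10^6 cells/mouse, female hairless mice, 5 wk. Start Rx at ~100 or 200 mm^3; 6–8 per test group. i.v. (or i.p.) 2×/wk ×4 wk, 3 doses. Readout: tumour volume, TGI %.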

H 460 = experiment: as above; format: in vivo; details: series 4, i.v., single 15 mg/kg, total 30 mg/kg, day 14
Method in brief: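 Mice bearing subcutaneous human tumours were randomised once tumours reached about 100 or 200 mm^3, then treated intravenously twice weekly for four weeks, with some series given intraperitoneally. Tumour length and width were measured twice weekly to derive volume and inhibition relative to controls.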

H T29 = experiment: as above; format: in vivo; details: series 3, i.v., total 24 mg/kg, day 20
Method in brief: as §1

DU-145 = experiment: Cytotoxic activity in vitro, SRB; format: cell-based, human
Method in brief: (§2)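 Values are EC50s, defined as the concentration of compound at which cell growth falls to 50% of control, determined by SRB assay in human-origin neoplastic cell lines.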

PC-3 = experiment: Cytotoxic activity in vitro, SRB; format: cell-based, human
Method in brief: as §2

AsPC-1 = experiment: Cytotoxic activity in vitro, SRB; format: cell-based, human
Method in brief: as §2

HCT-116 = experiment: Cytotoxic activity in vitro, SRB; format: cell-based, human
Method in brief: as §2

MCF-7 = experiment: Cytotoxic activity in vitro, SRB; format: cell-based, human
Method in brief: as §2

PANC-1 = experiment: Cytotoxic activity in vitro, SRB; format: cell-based, human
Method in brief: as §2

H-460 = experiment: Cytotoxic activity in vitro, SRB; format: cell-based, human
Method in brief: as §2

HT-29 = experiment: Cytotoxic activity in vitro, SRB; format: cell-based, human
Method in brief: as §2

MDA-MB-231 = experiment: Cytotoxic activity in vitro, SRB; format: cell-based, human
Method in brief: as §2

MiaPaCa-2 = experiment: Cytotoxic activity in vitro, SRB; format: cell-based, human
Method in brief: as §2

UM-UC-3 = experiment: Cytotoxic activity in vitro, SRB; format: cell-based, human
Method in brief: as §2

`O=c1c2cc(O)ccc2[nH]c2c([N+](=O)[O-])ccc(NCCCN3CCN(CCCNc4c5ccccc5nc5cccc([N+](=O)[O-])c45)CC3)c12` [C-1941] was tested, and the “TGI [%] [100 − (ΔVT/ΔVC × 100]” value (DU 145) was 52%, the “TGI [%] [100 − (ΔVT/ΔVC × 100]” value (Mia Pa Ca 2) was 30% and the “TGI [%] [100 − (ΔVT/ΔVC × 100]” value (H 460) was 24%. For the same molecule, the “TGI [%] [100 − (ΔVT/ΔVC × 100]” value (H T29; single 3 mg/kg) was 26%, the “TGI [%] [100 − (ΔVT/ΔVC × 100]” value (H T29; single 4 mg/kg) was 35% and the EC50 (DU-145) was 20 nM. It also gave an EC50 (PC-3) of 31 nM, an EC50 (AsPC-1) of 210 nM and an EC50 (HCT-116) of 11 nM. The EC50 (MCF-7) was 61 nM, the EC50 (PANC-1) was 43 nM and the EC50 (H-460) was 20 nM. It also gave an EC50 (HT-29) of 38 nM, an EC50 (MDA-MB-231) of 12 nM and an EC50 (MiaPaCa-2) of 12 nM. The EC50 (UM-UC-3) was 33 nM.
